The text below walks through data of patent publication US20260070945A1, “MACROCYCLIC IMMUNOMODULATORS” (Bristol-Myers Squibb Company, priority 2022, published 2026).

The term IC50 denotes the concentration at which inhibition is half-maximal.

Where a SMILES comes first, the peptide text is derived from it. Bridges are numbered along the chain shown (N, C = ends). [ ]: non-standard residue; d: D form. The star is where a group is joined. ξ: configuration not given here. Phe(3-CF3) = N[C@@H](Cc1cccc(C(F)(F)F)c1)C(=O)O; Phe(4-COOH) = N[C@@H](Cc1ccc(C(=O)O)cc1)C(=O)O; Bip = N[C@@H](Cc1ccc(-c2ccccc2)cc1)C(=O)O; NH(CH2)12COOH = O=C(O)CCCCCCCCCCCCN*; Val(3-OH) = CC(C)(O)[C@H](N)C(=O)O; Cha = N[C@@H](CC1CCCCC1)C(=O)O; Thr(3ξ) = CC(O)[C@H](N)C(=O)O; Carboxymethyl = O=C(O)C*; NMeA = CN[C@@H](C)C(=O)O; Aun = NCCCCCCCCCCC(=O)O; Dab = NCC[C@H](N)C(=O)O; Abu = CC[C@H](N)C(=O)O

The target in the test is T1, PD-1/PD-L1 interaction (PE-labeled human PD-L1-Ig binding to Jurkat cell line over-expressing human PD-1) (Homo sapiens, UniProt Q15116).
T1 construct: expressed in transfected cells; host or cells: Jurkat
T1 sequence (Q15116 25-288): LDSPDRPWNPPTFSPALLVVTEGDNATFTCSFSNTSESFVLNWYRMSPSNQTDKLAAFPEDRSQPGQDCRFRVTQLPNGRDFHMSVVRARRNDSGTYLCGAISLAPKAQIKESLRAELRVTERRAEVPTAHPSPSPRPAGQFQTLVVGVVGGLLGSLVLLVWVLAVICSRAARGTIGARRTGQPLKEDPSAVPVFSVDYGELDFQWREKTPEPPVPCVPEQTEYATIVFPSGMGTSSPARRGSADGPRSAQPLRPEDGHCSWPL
The experiment in a line: Jurkat-PD-1 Cell Binding High-Content Screening Assay (CBA). Conditions: PE-labeled PD-L1-Ig 20 nM final, Jurkat-hPD-1 cells; read-out: Jurkat HPD1 PDL1 IC50. In short, it runs like this:
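Read-out: high-content imaging of cell-bound PE fluorescence, with Hoechst 33342 nuclear counterstain after paraformaldehyde fixation. Before labeled ligand (20 nM final, 1 h) was added, compound sat on the cells for 2 h at 37 °C in DMEM/10% FCS.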
For the molecule `CC(=O)NCCCC[C@@H]1NC(=O)[C@H](C(C)(C)O)NC(=O)[C@H](CC2CCCCC2)NC(=O)[C@H](CCN)NC(=O)[C@@H](CC(C)C)NC(=O)[C@H](C)N(C)C(=O)[C@H](CCC(N)=O)NC(=O)[C@H](Cc2ccc(-c3ccccc3)cc2)NC(=O)[C@H](Cc2ccc(C(=O)O)cc2)NC(=O)[C@H](Cc2cccc(C(F)(F)F)c2)NC(=O)[C@H](CC(=O)O)NC(=O)[C@H](Cc2ccc(OCC(=O)O)cc2)NC(=O)[C@H](Cc2ccc(OCC(=O)O)cc2)NC(=O)CSC[C@@H](C(=O)N[C@@H](CCN)C(=O)NCCCCCCCCCCCCC(=O)O)NC1=O` [Example 2565] ({CH2CO}-Y(Carboxymethyl)Y(Carboxymethyl)D[Phe(3-CF3)][Phe(4-COOH)][Bip]Q[NMeA][dL][Dab][Cha][Val(3-OH)]K(Ac)C[Dab]-{NH(CH2)12COOH}; thioether N-14), the IC50 was determined as 3.3 nM.

Turning to `CC(C)C[C@H]1NC(=O)[C@H](C)N(C)C(=O)[C@H](Cc2ccc(C(=O)O)cc2)NC(=O)[C@H](Cc2ccc(-c3ccccc3)cc2)NC(=O)[C@H](Cc2ccc(C(=O)O)cc2)NC(=O)[C@H](Cc2cccc(C(F)(F)F)c2)NC(=O)[C@H](CC(=O)O)NC(=O)[C@H](Cc2ccc(C(=O)O)cc2)NC(=O)[C@H](C(C)O)NC(=O)CSC[C@@H](C(=O)N[C@@H](CCN)C(=O)NCCCCCCCCCCC(=O)O)NC(=O)[C@H](C(C)O)NC(=O)[C@H](C(C)C)NC(=O)[C@H](CC2CCCCC2)NC(=O)[C@H](CCN)NC1=O` (stereo partly drawn) [Example 2566] ({CH2CO}-[Thr(3ξ)][Phe(4-COOH)]D[Phe(3-CF3)][Phe(4-COOH)][Bip][Phe(4-COOH)][NMeA][dL][Dab][Cha]V[Thr(3ξ)]C[Dab][Aun]-OH; thioether N-14), the IC50 amounted to 4.5 nM.

`CC(C)C[C@H]1NC(=O)[C@H](C)N(C)C(=O)[C@H](Cc2ccc(C(=O)O)cc2)NC(=O)[C@H](Cc2ccc(-c3ccccc3)cc2)NC(=O)[C@H](Cc2ccc(C(=O)O)cc2)NC(=O)[C@H](Cc2cccc(C(F)(F)F)c2)NC(=O)[C@H](CC(=O)O)NC(=O)[C@H](Cc2ccc(C(=O)O)cc2)NC(=O)[C@H](C(C)O)NC(=O)CSC[C@@H](C(=O)N[C@@H](CCN)C(=O)NCCCCCCCCCCC(=O)O)NC(=O)[C@H](CO)NC(=O)[C@H](C(C)(C)O)NC(=O)[C@H](CC2CCCCC2)NC(=O)[C@H](CCN)NC1=O` (stereo partly drawn) [Example 2567] ({CH2CO}-[Thr(3ξ)][Phe(4-COOH)]D[Phe(3-CF3)][Phe(4-COOH)][Bip][Phe(4-COOH)][NMeA][dL][Dab][Cha][Val(3-OH)]SC[Dab][Aun]-OH; thioether N-14): the IC50 was 2.2 nM. In the case of `CC(C)C[C@H]1NC(=O)[C@H](C)N(C)C(=O)[C@H](Cc2ccc(C(=O)O)cc2)NC(=O)[C@H](Cc2ccc(-c3ccccc3)cc2)NC(=O)[C@H](Cc2ccc(C(=O)O)cc2)NC(=O)[C@H](Cc2cccc(C(F)(F)F)c2)NC(=O)[C@H](CC(=O)O)NC(=O)[C@H](Cc2ccc(C(=O)O)cc2)NC(=O)[C@H](C(C)O)NC(=O)CSC[C@@H](C(=O)N[C@@H](CCN)C(=O)NCCCCCCCCCCCCC(=O)O)NC(=O)[C@H](CO)NC(=O)[C@H](C(C)(C)O)NC(=O)[C@H](CC2CCCCC2)NC(=O)[C@H](CCN)NC1=O` (stereo partly drawn) [Example 2568] ({CH2CO}-[Thr(3ξ)][Phe(4-COOH)]D[Phe(3-CF3)][Phe(4-COOH)][Bip][Phe(4-COOH)][NMeA][dL][Dab][Cha][Val(3-OH)]SC[Dab]-{NH(CH2)12COOH}; thioether N-14) it was 22.8 nM; in that of `CC[C@@H]1NC(=O)CSC[C@@H](C(=O)N[C@@H](CCN)C(=O)NCCCCCCCCCCCCC(=O)O)NC(=O)[C@H](CO)NC(=O)[C@H](C(C)(C)O)NC(=O)[C@H](CC2CCCCC2)NC(=O)[C@H](CCN)NC(=O)[C@@H](CC(C)C)NC(=O)[C@H](C)N(C)C(=O)[C@H](Cc2ccc(C(=O)O)cc2)NC(=O)[C@H](Cc2ccc(-c3ccccc3)cc2)NC(=O)[C@H](Cc2ccc(C(=O)O)cc2)NC(=O)[C@H](Cc2cccc(C(F)(F)F)c2)NC(=O)[C@H](CC(=O)O)NC(=O)[C@H](Cc2ccc(C(=O)O)cc2)NC1=O` [Example 2569] ({CH2CO}-[Abu][Phe(4-COOH)]D[Phe(3-CF3)][Phe(4-COOH)][Bip][Phe(4-COOH)][NMeA][dL][Dab][Cha][Val(3-OH)]SC[Dab]-{NH(CH2)12COOH}; thioether N-14), 45.3 nM.
